Experimental findings from patent US20100035926A1, “PYRAZOLE DERIVATIVES AS NON-STEROIDAL GLUCOCORTICOID RECEPTOR LIGANDS” (priority 2006, published 2010) are described below.

Assay [1] deals with T1, GR (Homo sapiens, UniProt P04150).
T1 construct: endogenous in cells; host or cells: A549 (human lung carcinoma, ECACC No. 86012804), stably transfected with reporter plasmids only
T1 sequence (P04150 1-777): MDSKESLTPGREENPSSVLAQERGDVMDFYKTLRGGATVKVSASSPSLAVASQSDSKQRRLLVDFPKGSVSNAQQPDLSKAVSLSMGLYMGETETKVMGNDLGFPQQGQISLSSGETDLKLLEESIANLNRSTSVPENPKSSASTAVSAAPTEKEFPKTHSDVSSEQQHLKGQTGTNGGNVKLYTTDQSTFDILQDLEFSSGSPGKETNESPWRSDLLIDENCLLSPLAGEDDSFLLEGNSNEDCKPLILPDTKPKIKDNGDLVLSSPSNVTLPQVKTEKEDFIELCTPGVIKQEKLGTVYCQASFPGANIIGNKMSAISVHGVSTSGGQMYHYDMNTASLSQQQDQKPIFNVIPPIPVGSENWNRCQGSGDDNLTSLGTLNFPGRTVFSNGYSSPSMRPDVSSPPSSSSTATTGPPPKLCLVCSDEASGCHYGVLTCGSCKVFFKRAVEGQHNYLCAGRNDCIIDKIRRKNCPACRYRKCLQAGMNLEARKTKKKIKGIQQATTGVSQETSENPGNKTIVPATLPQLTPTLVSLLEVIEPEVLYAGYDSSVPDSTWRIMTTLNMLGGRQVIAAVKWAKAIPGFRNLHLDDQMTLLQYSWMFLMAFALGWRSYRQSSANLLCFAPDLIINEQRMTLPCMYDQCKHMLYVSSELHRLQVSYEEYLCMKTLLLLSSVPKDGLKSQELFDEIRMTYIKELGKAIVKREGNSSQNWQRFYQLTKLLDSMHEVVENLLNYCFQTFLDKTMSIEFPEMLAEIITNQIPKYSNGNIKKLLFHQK
The experiment in a line: GR Agonist Assay - MMTV Assay (A549 MMTV cells, renilla luciferase reporter). It counts as cell-based. Conditions: 6 h, agonists, read-out: average maximum asymptote in the MMTV agonist assay. Put shortly: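 Stably transfected A549 MMTV cells carry a GR-driven luciferase reporter. Cells at 0.1×10^6/ml in DMEM with 10% FCS and 25 mM HEPES were added to wells containing compound. After detection reagent, plates were held about 15 mins at room temperature and luminescence was read.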
For orientation: A reporter such as luciferase makes a cellular process visible.

A further assay concerns the target T2, glucocorticoid receptor (Homo sapiens, UniProt P04150).
T2 construct: a partially purified full length glucocorticoid receptor
T2 sequence (P04150 1-777): T1 sequence (P04150 1-777)
The experiment in a line: Glucocorticoid Receptor Binding Assay (fluorescence polarisation, displacement of Alexa 555 labelled dexamethasone derivative). As to conditions: at least once in this assay; read-out: glucocorticoid binding pIC50 (converted). Put shortly:
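Partially purified full-length GR incubated with test compound and fluorescent dexamethasone plus GR-stabilising buffer components, 2 hr at room temperature in the dark. Binding scored as displacement of tracer, read as decrease in fluorescence polarisation.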

Assay [2] addresses T1, GR. The experiment in a line: GR Functional Assay - NFκB Assay (A549 SPAP cells, TNFα stimulated). In kind it is cell-based. Conditions: for Emax: agonists, read-out: average maximum asymptote in the NFkB assay. Put shortly:
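Stably transfected A549 SPAP cells at 0.16×10^6/ml in DMEM with 10% FCS were added to compound and stimulated with TNFα to drive NFκB-dependent SPAP expression. After 1 hr equilibration at room temperature, SPAP was read colorimetrically with pNPP in diethanolamine buffer, pH 9.8.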

The target of another assay is T3, Progesterone Receptor (Homo sapiens, UniProt P06401).
T3 construct: expressed in transfected cells; host or cells: CV-1 cells transduced with PRb-BacMam and MMTV-BacMam
T3 sequence (P06401 1-933): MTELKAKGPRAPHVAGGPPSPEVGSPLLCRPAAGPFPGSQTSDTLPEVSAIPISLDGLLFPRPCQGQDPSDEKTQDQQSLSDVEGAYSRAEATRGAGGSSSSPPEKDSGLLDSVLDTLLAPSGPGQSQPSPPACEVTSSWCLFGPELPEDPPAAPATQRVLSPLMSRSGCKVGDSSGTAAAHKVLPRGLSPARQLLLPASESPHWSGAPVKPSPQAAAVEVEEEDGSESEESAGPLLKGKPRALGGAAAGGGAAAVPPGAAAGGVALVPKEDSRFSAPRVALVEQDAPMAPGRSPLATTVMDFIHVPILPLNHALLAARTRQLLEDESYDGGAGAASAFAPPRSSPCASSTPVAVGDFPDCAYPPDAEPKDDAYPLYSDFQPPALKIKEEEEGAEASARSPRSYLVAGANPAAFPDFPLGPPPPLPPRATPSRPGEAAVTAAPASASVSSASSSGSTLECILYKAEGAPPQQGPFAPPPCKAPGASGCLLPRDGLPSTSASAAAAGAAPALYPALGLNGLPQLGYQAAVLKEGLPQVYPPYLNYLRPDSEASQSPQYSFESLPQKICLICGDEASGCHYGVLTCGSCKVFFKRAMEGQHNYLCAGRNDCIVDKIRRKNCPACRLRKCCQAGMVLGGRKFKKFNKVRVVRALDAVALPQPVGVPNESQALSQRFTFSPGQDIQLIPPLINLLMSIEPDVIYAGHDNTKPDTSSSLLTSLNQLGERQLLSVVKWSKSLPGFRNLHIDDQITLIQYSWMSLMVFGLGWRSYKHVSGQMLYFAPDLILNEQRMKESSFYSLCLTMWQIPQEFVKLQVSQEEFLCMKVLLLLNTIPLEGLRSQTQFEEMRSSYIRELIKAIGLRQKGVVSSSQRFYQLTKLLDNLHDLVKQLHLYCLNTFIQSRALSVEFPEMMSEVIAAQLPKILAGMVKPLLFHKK
The experiment in a line: Assay for Progesterone Receptor Agonist Activity (CV-1 cells, PRb-BacMam, MMTV-BacMam). In kind it is cell-based. Conditions: at least once in this assay, read-out: progesterone receptor agonist pEC50 (converted). The method, then:
A T225 flask of CV-1 cells at a density of 80% confluency was washed with PBS, detached from the flask using 0.25% trypsin and counted using a Sysmex KX-21N. Cells were diluted in DMEM containing 10% Hyclone, 2 mM […] and 1% Pen/Strep at 140 cells/μl and transduced with 10% PRb-BacMam and 10% MMTV-BacMam. […] of suspension cells were dispensed to each well of white Nunc 384-well plates, containing compounds at the required concentration. After 24 hr 10 μl of Steadylite were added to each well of the plates. Plates were incubated in the dark for 10 min before reading them on a Viewlux reader. Dose response curves were constructed from which pEC50 values were estimated.

Setting [3] is: at least once in the NFkB assay, A549 SPAP cells, read-out: pIC50 in the NFkB assay (converted).
The mark [4] stands for this setting: at least once, examples listed as agonists in NFkB and MMTV assays, read-out: potency pIC50 in the NFKB assay (converted).

Structures are written as SMILES. Like-named read-outs stand apart in the source and are kept apart here. Bounds are passed on as bounds.

On to `CCN(CC(O)(CNC(=O)c1cnn(-c2ccc(F)cc2)c1N)C(F)(F)F)C(=O)c1ccccc1F` (racemic) [Example 4 (racemic), 5-Amino-N-[2-({ethyl[(2-fluorophenyl)carbonyl]amino}methyl)-3,3,3-trifluoro-2-hydroxypropyl]-1-(4-fluorophenyl)-1H-pyrazole-4-carboxamide], for which the Emax at GR [1] and on GR [2] (A549 SPAP cells) was no less than 40% each time. Moreover, the IC50 on glucocorticoid receptor was less than 1000 nM; at GR [2] (setting [3]), less than 1000 nM; on GR [2] (setting [4]) it was less than 316 nM. Moreover, the EC50 on Progesterone Receptor was greater than 1000 nM.

Consider `CN(CC(O)(CNC(=O)c1cnn(-c2ccc(F)cc2)c1N)C(F)(F)F)C(=O)c1ccccc1F` (racemic) [Example 6 (racemic), 5-amino-1-(4-fluorophenyl)-N-(3,3,3-trifluoro-2-{[[(2-fluorophenyl)car-bonyl](methyl)amino]methyl}-2-hydroxypropyl)-1H-pyrazole-4-carboxamide], for which the Emax on GR [1] and at GR [2] (A549 SPAP cells) was no less than 40% throughout. Also, the IC50 on glucocorticoid receptor is less than 1000 nM; at GR [2] (setting [3]), less than 1000 nM; on GR [2] (setting [4]), less than 316 nM. Moreover, the EC50 on Progesterone Receptor is greater than 1000 nM.

As to `CN(CC(O)(CNC(=O)c1cnn(-c2ccc(F)cc2)c1N)C(F)(F)F)C(=O)c1ccccc1Cl` (racemic) [Example 7 (racemic), 5-amino-N-(2-{[[(2-chlorophenyl)car-bonyl](methyl)amino]methyl}-3,3,3-trifluoro-2-hydroxypropyl)-1-(4-fluorophenyl)-1H-pyrazole-4-carboxamide], the Emax on GR [1] and on GR [2] (A549 SPAP cells) was no less than 40% throughout. The IC50 at glucocorticoid receptor is less than 1000 nM; at GR [2] (setting [3]) it was less than 1000 nM; on GR [2] (setting [4]), less than 316 nM. In addition, the EC50 at Progesterone Receptor is greater than 1000 nM.

For `CCN(CC(O)(CNC(=O)c1cnn(-c2ccc(F)cc2)c1N)C(F)(F)F)C(=O)c1ccccc1C(F)(F)F` (racemic) [Example 9 (racemic), 5-amino-N-{2-[(ethyl{[2-(trifluoromethyl)phenyl]carbonyl}amino)methyl]-3,3,3-trifluoro-2-hydroxypropyl}-1-(4-fluorophenyl)-1H-pyrazole-4-carboxamide], the Emax at GR [1] and at GR [2] (A549 SPAP cells) was no less than 40% in each case. Moreover, the IC50 is less than 1000 nM at glucocorticoid receptor, less than 1000 nM at GR [2] (setting [3]) and less than 316 nM on GR [2] (setting [4]). The EC50 at Progesterone Receptor is greater than 1000 nM.

Turning to `CCN(CC(O)(CNC(=O)c1cnn(-c2ccc(F)cc2)c1N)C(F)(F)F)C(=O)c1ccccc1` (racemic) [Example 14 (racemic), 5-amino-N-(2-{[ethyl(phenylcar-bonyl)amino]methyl}-3,3,3-trifluoro-2-hydroxypropyl)-1-(4-fluorophenyl)-1H-pyrazole-4-carboxamide], the Emax at GR [1] and on GR [2] (A549 SPAP cells) was no less than 40% throughout. Also, the figures for the IC50 on glucocorticoid receptor, on GR [2] (setting [3]) and at GR [2] (setting [4]) were less than 1000 nM, less than 1000 nM and less than 316 nM, respectively. Also, the EC50 on Progesterone Receptor is greater than 1000 nM.

`Nc1c(C(=O)NCC(O)(CN(CCF)C(=O)c2ccccc2Cl)C(F)(F)F)cnn1-c1ccc(F)cc1` (racemic) [Example 15 (racemic), 5-amino-N-(2-{[[(2-chlorophenyl)car-bonyl](2-fluoroethyl)amino]methyl}-3,3,3-trifluoro-2-hydroxypropyl)-1-(4-fluorophenyl)-1H-pyrazole-4-carboxamide]: the Emax at GR [1] and on GR [2] (A549 SPAP cells) was no less than 40% each time. The IC50 at glucocorticoid receptor was less than 1000 nM; on GR [2] (setting [3]) it was less than 1000 nM; on GR [2] (setting [4]), less than 316 nM. The EC50 on Progesterone Receptor is greater than 1000 nM.

`CCN(CC(O)(CNC(=O)c1cnn(-c2ccccc2)c1N)C(F)(F)F)C(=O)c1ccccc1F` (racemic) [Example 45 (racemic), 5-amino-N-[2-({ethyl[(2-fluorophenyl)car-bonyl]amino}methyl)-3,3,3-trifluoro-2-hydroxypropyl]-1-phenyl-1H-pyrazole-4-carboxamide]: the Emax on GR [1] and at GR [2] (A549 SPAP cells) was no less than 40% throughout. In addition, the IC50 at glucocorticoid receptor is less than 1000 nM; on GR [2] (setting [3]), less than 1000 nM; on GR [2] (setting [4]) it was less than 316 nM. For the same compound, the EC50 at Progesterone Receptor is greater than 1000 nM.

On to `CCN(CC(O)(CNC(=O)c1cnn(-c2ccccc2)c1N)C(F)(F)F)C(=O)c1ccccc1Cl` (racemic) [Example 46 (racemic), 5-amino-N-(2-{[[(2-chlorophenyl)car-bonyl](ethyl)amino]methyl}-3,3,3-trifluoro-2-hydroxypropyl)-1-phenyl-1H-pyrazole-4-carboxamide], for which the Emax at GR [1] and on GR [2] (A549 SPAP cells) was no less than 40% in each case. The IC50 at glucocorticoid receptor is less than 1000 nM; on GR [2] (setting [3]) it was less than 1000 nM; at GR [2] (setting [4]), less than 316 nM. For the same compound, the EC50 at Progesterone Receptor is greater than 1000 nM.

For the compound `Nc1c(C(=O)NCC(O)(CN(CCF)C(=O)c2ccccc2F)C(F)(F)F)cnn1-c1ccc(F)cc1` (single isomer, unassigned) [Example 2 Enantiomer 1, 5-Amino-1-(4-fluorophenyl)-N-[3,3,3-trifluoro-2-([(2-fluoroethyl)[(2-fluorophenyl)carbonyl]amino]methyl)-2-hydroxypropyl]-1H-pyrazole-4-carboxamide], the Emax at GR [1] and on GR [2] (A549 SPAP cells) was no less than 40% each time. Further, the results for the IC50 at glucocorticoid receptor, at GR [2] (setting [3]) and at GR [2] (setting [4]) were less than 1000 nM, less than 1000 nM and less than 316 nM, respectively. For the same compound, the EC50 at Progesterone Receptor was greater than 1000 nM.
